According to US20120029066A1, “USE OF FLAVONES FOR TREATING PSYCHIATRIC DISORDERS WITH SENSORIMOTOR GATING DEFICITS” (Taipei Medical University, priority 2010, published 2012):

Columns and labels:
mice [1] = assay: Prepulse inhibition (PPI) of acoustic startle response, test compounds i.p.; conditions: for effect of psychotomimetic alone on pre-pulse inhibition of the startle response: control experiment, KET 30 mg/Kg i.p. or MeAmph 2 mg/Kg i.p.; for rescue of PPI disruption induced by methamphetamine: MeAmPh 2 mg/kg i.p., 71 dB-prepulse protocol, FIG. 7
mice [2] = assay: PPI of startle response after bilateral intra-cerebella microinjection of test compounds; assay type: in vivo; conditions: for reinstating ketamine induced PPI disruption: FIG. 4, FIG. 5
Description: In view of the finding in FIGS. 2 and 3, test compounds (e.g., hispidulin or Ro-154513) were microinjected into cerebella (e.g., i.cb microinjection) of the test animals to confirm the action site of hispidulin, by observing whether the MeAmph, KET, or MK-801-induced PPI disruption may be rescued.
Briefly, the mice were anaesthetized with pentobarbital (100 mg/kg i.p.) and placed in a stereotaxic frame. After shaving the hair, the skull surface was exposed by an incision. The head position of the mice was adjusted so that the bregma-lambda axis was horizontal. Then, two 24 gauge stainless-steel cannulae were implanted bilaterally into the lateral cerebellum (−6.4 mm caudal, ±1.5 mm lateral, −1.0 mm ventral from Bregma), according to stereotaxic coordinates (Paxions, 2001). Three stainless steel screws and dental cement were used to fix the cannulae on the top of the skull. The animal was allowed to fully recover after surgery for at least one week before the behavioral experiments were conducted.
On the day of experiment, test compounds were injected through the embedded cannula at 0.5 μl on each side of the cerebellum for 30 s and waited for 1 min to allow the injected compounds to diffuse into the cerebellum. PPI test were conducted as described in Example 2. After experiments, methylene blue was microinjected (0.5 μl/side) and animals were sacrificed and cerebellar slices were dissected to confirm the microinjection site. The data was discarded in the mice with incorrect microinjection sites.

Male ICR mice = assay: Methamphetamine-induced hyperlocomotion, locomotor activity test; assay type: in vivo; conditions: 10 mg/Kg i.p. after methamphetamine 2 mg/kg; test after 15 minutes; FIG. 1
Description: Male ICR mice (25-35 g) were used in this study. They were bred, housed and maintained in the animal facility center with temperature- and humidity-controlled and 12:12 light dark cycle in National Taiwan University Medical College (NTUM) (Taiwan, R.O.C.). All animal experiments were carried out in accordance with the guidelines established by the Institutional Animal Care and Utilization Committee of the respective university.
Methamphetamine (MeAmPh, 2 mg/kg) was injected into mice to induce hyperlocomotion in the mice as a typical model for behavioral experiments.
After 15 minutes, the treated mice were then subjected to locomotor activity test.
Data herein are expressed as the mean±S.E.M and the n number indicates the number of the mice used. Statistical comparisons between the data in control and treatment conditions were analyzed by Student's t test. An effect was considered statistically significant if the p value was less than 0.05.

[3] = 71 or 77 dB prepulse, 115 dB pulse
[4] = 10 nmol i.cb., KET 30 mg/Kg i.p.

## CNC1(c2ccccc2Cl)CCCCC1=O (centres unmarked) [KET, ketamine, reference compound]
Mice [1]; [3]
  effect of psychotomimetic alone on pre-pulse inhibition of the startle response: inhibited the pre-pulse inhibition

## CN[C@@H](C)Cc1ccccc1 [MeAmph, methamphetamine, reference compound]
Mice [1]; [3]
  effect of psychotomimetic alone on pre-pulse inhibition of the startle response: inhibited the pre-pulse inhibition

## CCOC(=O)c1ncn2c1CN(C)C(=O)c1cc(N=[N+]=[N-])ccc1-2 [Ro 154513, reference compound]
Mice [2]; [4]
  reinstating ketamine induced PPI disruption: reinstated

## COc1ccc(-c2cc(=O)c3c(O)cc(O)cc3o2)cc1 [acacetin]
Male ICR mice
  decreasing MeAmph-induced hyperlocomotor activity: active
Mice [1]; 10 mg/Kg i.p.
  rescue of PPI disruption induced by methamphetamine: significantly rescued

## NS(=O)(=O)c1cc(C(=O)O)c(NCc2ccco2)cc1Cl [furosemide, reference compound]
Mice [2]; furosemide 50 nmol i.cb., reinstatement by Ro-154513 or hispidulin 10 nmol i.cb., KET 30 mg/Kg i.p., FIG. 6
  effect on the reinstated ketamine induced PPI disruption: antagonized
Mice [2]; furosemide 50 nmol i.cb., reinstatement by Ro-154513 or hispidulin 10 nmol i.cb., MeAmPh 2 mg/Kg i.p., FIG. 6
  effect on the reinstated methamphetamine induced PPI disruption: antagonized

## COc1c(O)cc2oc(-c3ccc(O)cc3)cc(=O)c2c1O [hispidulin]
Mice [2]; [4]
  reinstating ketamine induced PPI disruption: effective in reinstating
Mice [2]; 10 nmol i.cb., MK-801 0.3 mg/Kg i.p., FIG. 4
  reinstating MK-801 induced PPI disruption: effective in reinstating
Mice [2]; 10 nmol i.cb., methamphetamine 2 mg/Kg i.p., FIG. 4
  reinstating methamphetamine induced PPI disruption: effective in reinstating
Male ICR mice
  decreasing MeAmph-induced hyperlocomotor activity: active
Mice [1]; 10 mg/Kg i.p., 15-minute before KET 30 mg/Kg i.p., 71 or 77 dB prepulse, 115 dB pulse, FIG. 2
  rescue of KET impaired PPI inhibition: rescued
Mice [1]; 50 mg/Kg i.p., 15-minute before MeAmph 2 mg/Kg i.p., 71 or 77 dB prepulse, FIG. 3
  rescue of MeAmph impaired PPI inhibition: rescued

## O=c1cc(-c2ccc(O)c(O)c2)oc2cc(O)cc(O)c12 [luteolin]
Mice [1]; 10 mg/Kg i.p.
  rescue of PPI disruption induced by methamphetamine: significantly rescued
